Drawing on US20120101093A1, “SUBSTITUTED IMIDAZO[1,2-A]PYRIDINE DERIVATIVES, PHARMACEUTICAL COMPOSITIONS, AND METHODS OF USE AS BETA-SECRETASE INHIBITORS” (HIGH POINT PHARMACEUTICALS, LLC, priority 2009, published 2012), this text covers IC50 for 27 compounds.

The assay has as its target T1, BACE-1 enzyme (Homo sapiens, UniProt P56817).
T1 construct: purchased R & D Systems 931AS
The experiment in a line: BACE Fluorescence Resonance Energy Transfer (FRET) Assay. Type of assay: biochemical. The conditions noted are these: pH 4-4.5, 30 min pre-incubation, about 1.5 hours reaction. The protocol:
BACE Fluorescence Resonance Energy Transfer (FRET) Assay
In the following assay, the proteolytic activity of BACE is measured by observing cleavage of a fluorescent group from a peptide substrate containing a rhodamine fluorescent donor and a quenching acceptor.
The inhibitory activity of compounds of Formula (I) may be compared to a statine derived control inhibitor STA200 (MP Biomedical Cat. #STA-200). The cleavage reaction occurs when a BACE-1 substrate (Invitrogen, Cat. #P2986) was added to a reaction mixture containing BACE-1 enzyme (R & D Systems, Cat. #931AS) and allowed to proceed for about 1.5 hours. Fluorescence, used as a marker of BACE activity, is monitored using 540 nm excitation and 585 nm emission wavelengths (Envision, Perkin Elmer).
A typical assay reaction contains BACE-1 enzyme—in assay buffer (50 mM sodium acetate, pH 4-4.5, 0.01% CHAPS (3-[(3-Cholamidopropyl)dimethylammonio]-1-propanesulfonate), 0.0125% TritonX-100, 0.006% EDTA) which is pre-incubated for 30 minutes with test compound in 7.5% DMSO. The reaction is initiated with the addition of BACE-1 substrate in assay buffer and allowed to proceed for about 1.5 hours at room temperature. Assays are conducted in black 384-well microtiter plates and scanned at room temperature using 540 nm excitation and 585 nm emission wavelengths.
In some instances, the percent inhibition at a given concentration is reported instead of the IC50.

T1 sequence (P56817 46-457 limits assumed): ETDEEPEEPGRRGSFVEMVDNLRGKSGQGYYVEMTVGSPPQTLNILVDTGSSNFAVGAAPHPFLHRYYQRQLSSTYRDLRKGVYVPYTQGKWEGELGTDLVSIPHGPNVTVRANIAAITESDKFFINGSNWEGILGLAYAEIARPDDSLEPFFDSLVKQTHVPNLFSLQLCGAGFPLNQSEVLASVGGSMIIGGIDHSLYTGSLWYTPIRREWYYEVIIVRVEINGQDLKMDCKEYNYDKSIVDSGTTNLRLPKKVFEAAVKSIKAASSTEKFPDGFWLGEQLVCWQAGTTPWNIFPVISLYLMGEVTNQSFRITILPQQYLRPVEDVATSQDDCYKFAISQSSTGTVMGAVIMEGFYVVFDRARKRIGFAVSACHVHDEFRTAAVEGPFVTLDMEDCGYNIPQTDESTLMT

`CCOc1ccc(-c2ccc3[nH]c(NC(=O)c4cn5c(C)cccc5n4)nc3c2)c(Cl)c1` [Example 108, 5-Methyl-imidazo[1,2-a]pyridine-2-carboxylic acid [5-(2-chloro-4-ethoxy-phenyl)-1H-benzoimidazol-2-yl]-amide] returned an IC50 of 0.39 µM.

The compound `O=C(Nc1nc2cc(-c3cccc(C(F)(F)F)c3)ccc2[nH]1)c1cn2c(Br)cccc2n1` [Example 111, 5-Bromo-imidazo[1,2-a]pyridine-2-carboxylic acid [5-(3-trifluoromethyl-phenyl)-1H-benzoimidazol-2-yl]-amide] displayed an IC50 of 0.22 µM.

`O=C(Nc1nc2cc(-c3cc(F)cc(Cl)c3)ccc2[nH]1)c1cn2cc(F)ccc2n1` [Example 113, 6-Fluoro-imidazo[1,2-a]pyridine-2-carboxylic acid [5-(3-chloro-5-fluoro-phenyl)-1H-benzoimidazol-2-yl]-amide] had an IC50 of 0.46 µM.

For the compound `CCOC(=O)c1ccn2cc(C(=O)Nc3nc4cc(-c5cc(F)cc(Cl)c5)ccc4[nH]3)nc2c1` [Example 114, 2-[5-(3-Chloro-5-fluoro-phenyl)-1H-benzoimidazol-2-ylcarbamoyl]-imidazo[1,2-a]pyridine-7-carboxylic acid ethyl ester], half-maximal inhibition (IC50) required 0.29 µM.

Take `O=C(Nc1nc2cc(-c3cc(F)cc(Cl)c3)ccc2[nH]1)c1cn2ccccc2n1` [Example 116, Imidazo[1,2-a]pyridine-2-carboxylic acid [5-(3-chloro-5-fluoro-phenyl)-1H-benzoimidazol-2-yl]-amide]: 0.38 µM corresponded to half-maximal inhibition (IC50).

`Cc1cccc2nc(C(=O)Nc3nc4cc(C5CCCC5)ccc4[nH]3)cn12` [Example 118, 5-Methyl-imidazo[1,2-a]pyridine-2-carboxylic acid (5-cyclopentyl-1H-benzoimidazol-2-yl)-amide] showed an IC50 of 0.99 µM.

In turn, `Cc1ccc(-c2ccc3[nH]c(NC(=O)c4cn5c(C)cccc5n4)nc3c2)cc1` [Example 120, 5-Methyl-imidazo[1,2-a]pyridine-2-carboxylic acid (5-p-tolyl-1H-benzoimidazol-2-yl)-amide] came in with an IC50 of 0.49 µM.

In the case of `O=C(Nc1nc2cc(-c3cccc(C(F)(F)F)c3)ccc2[nH]1)c1cn2c(-c3ccccc3)cccc2n1` [Example 125, 5-Phenyl-imidazo[1,2-a]pyridine-2-carboxylic acid [5-(3-trifluoromethyl-phenyl)-1H-benzoimidazol-2-yl]-amide], half-maximal inhibition (IC50) required 1.17 µM.

Turning to `CN1CCN(c2cc(F)cn3cc(C(=O)Nc4nc5cc(-c6cc(F)cc(Cl)c6)ccc5[nH]4)nc23)CC1` [Example 128, 6-Fluoro-8-(4-methyl-piperazin-1-yl)-imidazo[1,2-a]pyridine-2-carboxylic acid [5-(3-chloro-5-fluoro-phenyl)-1H-benzoimidazol-2-yl]-amide], 0.31 µM corresponded to half-maximal inhibition (IC50).

Compound `CCOc1cc(F)cn2cc(C(=O)Nc3nc4cc(-c5cc(F)cc(Cl)c5)ccc4[nH]3)nc12` [Example 129, 8-Ethoxy-6-fluoro-imidazo[1,2-a]pyridine-2-carboxylic acid [5-(3-chloro-5-fluoro-phenyl)-1H-benzoimidazol-2-yl]-amide] gave an IC50 of 0.43 µM.

Compound `O=C(Nc1nc2cc(-c3cc(F)cc(Cl)c3)ccc2[nH]1)c1cn2cc(F)cc(N3CCNCC3)c2n1` [Example 130, 6-Fluoro-8-piperazin-1-yl-imidazo[1,2-a]pyridine-2-carboxylic acid [5-(3-chloro-5-fluoro-phenyl)-1H-benzoimidazol-2-yl]-amide] showed an IC50 of 0.35 µM.

The compound `CN(C)c1cc(F)cn2cc(C(=O)Nc3nc4cc(-c5cc(F)cc(Cl)c5)ccc4[nH]3)nc12` [Example 131, 8-Dimethylamino-6-fluoro-imidazo[1,2-a]pyridine-2-carboxylic acid [5-(3-chloro-5-fluoro-phenyl)-1H-benzoimidazol-2-yl]-amide] registered an IC50 of 1.01 µM.

Compound `CNc1cc(F)cn2cc(C(=O)Nc3nc4cc(-c5cccc(OC(F)(F)F)c5)ccc4[nH]3)nc12` [Example 132, 6-Fluoro-8-methylamino-imidazo[1,2-a]pyridine-2-carboxylic acid [5-(3-trifluoromethoxy-phenyl)-1H-benzoimidazol-2-yl]-amide] yielded an IC50 of 1.04 µM.

`CN(C)c1cc(F)cn2cc(C(=O)Nc3nc4cc(-c5cccc(OC(F)(F)F)c5)ccc4[nH]3)nc12` [Example 133, 8-Dimethylamino-6-fluoro-imidazo[1,2-a]pyridine-2-carboxylic acid [5-(3-trifluoromethoxy-phenyl)-1H-benzoimidazol-2-yl]-amide] displayed an IC50 of 0.64 µM.

Regarding `O=C(Nc1nc2cc(-c3cccc(OC(F)(F)F)c3)ccc2[nH]1)c1cn2cc(F)cc(N3CCNCC3)c2n1` [Example 134, 6-Fluoro-8-piperazin-1-yl-imidazo[1,2-a]pyridine-2-carboxylic acid [5-(3-trifluoromethoxy-phenyl)-1H-benzoimidazol-2-yl]-amide], the IC50 came to 0.29 µM.

In turn, `CN1CCN(c2cc(F)cn3cc(C(=O)Nc4nc5cc(-c6cccc(OC(F)(F)F)c6)ccc5[nH]4)nc23)CC1` [Example 135, 6-Fluoro-8-(4-methyl-piperazin-1-yl)-imidazo[1,2-a]pyridine-2-carboxylic acid [5-(3-trifluoromethoxy-phenyl)-1H-benzoimidazol-2-yl]-amide] had an IC50 of 0.2 µM.

On to `COc1cc(F)cn2cc(C(=O)Nc3nc4cc(-c5cccc(OC(F)(F)F)c5)ccc4[nH]3)nc12` [Example 136, 6-Fluoro-8-methoxy-imidazo[1,2-a]pyridine-2-carboxylic acid [5-(3-trifluoromethoxy-phenyl)-1H-benzoimidazol-2-yl]-amide], for which the IC50 came out at 0.23 µM.

`CCOc1cccc2nc(C(=O)Nc3nc4cc(-c5cccc(C(F)(F)F)c5)ccc4[nH]3)cn12` [Example 137, 5-Ethoxy-imidazo[1,2-a]pyridine-2-carboxylic acid [5-(3-trifluoromethyl-phenyl)-1H-benzoimidazol-2-yl]-amide] returned an IC50 of 1.39 µM.

In turn, `COCCNc1cc(F)cn2cc(C(=O)Nc3nc4cc(-c5cc(F)cc(Cl)c5)ccc4[nH]3)nc12` [Example 138, 6-Fluoro-8-(2-methoxy-ethylamino)-imidazo[1,2-a]pyridine-2-carboxylic acid [5-(3-chloro-5-fluoro-phenyl)-1H-benzoimidazol-2-yl]-amide] yielded an IC50 of 1.27 µM.

Turning to `COCCCNc1cc(F)cn2cc(C(=O)Nc3nc4cc(-c5cc(F)cc(Cl)c5)ccc4[nH]3)nc12` [Example 139, 6-Fluoro-8-(3-methoxy-propylamino)-imidazo[1,2-a]pyridine-2-carboxylic acid [5-(3-chloro-5-fluoro-phenyl)-1H-benzoimidazol-2-yl]-amide], the concentration for half-maximal inhibition (IC50) stood at 0.48 µM.

Consider `COCCOc1cc(F)cn2cc(C(=O)Nc3nc4cc(-c5cc(F)cc(Cl)c5)ccc4[nH]3)nc12` [Example 140, 6-Fluoro-8-(2-methoxy-ethoxy)-imidazo[1,2-a]pyridine-2-carboxylic acid [5-(3-chloro-5-fluoro phenyl)-1H-benzoimidazol-2-yl]-amide], for which half-maximal inhibition (IC50) was put at 0.25 µM.

As for `CN(C)CCOc1cc(F)cn2cc(C(=O)Nc3nc4cc(-c5cc(F)cc(Cl)c5)ccc4[nH]3)nc12` [Example 141, 8-(2-Dimethylamino-ethoxy)-6-fluoro-imidazo[1,2-a]pyridine-2-carboxylic acid [5-(3-chloro-5-fluoro-phenyl)-1H-benzoimidazol-2-yl]-amide], the midpoint of inhibition, the IC50, lay at 0.66 µM.

In the case of `CN(C)CCOc1cc(Cl)cn2cc(C(=O)Nc3nc4cc(-c5cc(F)cc(Cl)c5)ccc4[nH]3)nc12` [Example 142, 6-Chloro-8-(2-dimethylamino-ethoxy)-imidazo[1,2-a]pyridine-2-carboxylic acid [5-(3-chloro-5-fluoro-phenyl)-1H-benzoimidazol-2-yl]-amide], 0.34 µM corresponded to half-maximal inhibition (IC50).

For the compound `O=C(Nc1nc2cc(-c3cc(F)cc(Cl)c3)ccc2[nH]1)c1cn2cc(Cl)cc(Cl)c2n1` [Example 143, 6,8-Dichloro-imidazo[1,2-a]pyridine-2-carboxylic acid [5-(3-chloro-5-fluoro-phenyl)-1H-benzoimidazol-2-yl]-amide], the IC50 worked out at 1.06 µM.

The compound `Cc1cc(Cl)c2nc(C(=O)Nc3nc4cc(-c5cc(F)cc(Cl)c5)ccc4[nH]3)cn2c1` [Example 144, 8-Chloro-6-methyl-imidazo[1,2-a]pyridine-2-carboxylic acid [5-(3-chloro-5-fluoro-phenyl)-1H-benzoimidazol-2-yl]-amide] registered an IC50 of 0.55 µM.

Regarding `O=C(Nc1nc2cc(-c3cc(F)cc(Cl)c3)ccc2[nH]1)c1cn2cc(F)cc(OCCN3CCOCC3)c2n1` [Example 145, 6-Fluoro-8-(2-morpholin-4-yl-ethoxy)-imidazo[1,2-a]pyridine-2-carboxylic acid [5-(3-chloro-5-fluoro-phenyl)-1H-benzoimidazol-2-yl]-amide], 0.52 µM corresponded to half-maximal inhibition (IC50).

`Cc1cc(OCCN(C)C)c2nc(C(=O)Nc3nc4cc(-c5cc(F)cc(Cl)c5)ccc4[nH]3)cn2c1` [Example 146, 8-(2-Dimethylamino-ethoxy)-6-methyl-imidazo[1,2-a]pyridine-2-carboxylic acid [5-(3-chloro-5-fluoro-phenyl)-1H-benzoimidazol-2-yl]-amide] yielded an IC50 of 0.32 µM.

As usually defined, the IC50 is the concentration that inhibits the measured activity by half. The low end stands for inhibition by little substance, the high end for a need for much substance.
